Reference: publication PMC10831936 (iScience, 2024)

Assays:
[1] = system: EGR1p (ERBB4); test: EGR1p pathway sensor luciferase assay, ERBB4 transfected; type: cell-based, Rattus norvegicus; settings: Rattus norvegicus, PC-12; PC12 cells; constant EGF-like domain 10 ng/mL; luciferase readout; read-out: ERBB4 downstream MAPK signaling IC50, EGR1p sensor luciferase
Experimental: (§1) 50,000 PC12 cells were seeded per 96-well onto poly-L-lysin (PLL)-coated plates and transfected the following day (day in vitro 1, DIV1) with assay plasmids using Lipofectamine 3000 (Thermo Fisher Scientific). For split TEV assays, plasmids (pcDNA3 or pTag4C backbone) encoding receptor-NTEV-tcs-GV, GRB2-SH2-CTEV (for ERBB receptors) or ARBB2-1-383-CTEV (for HTR2A) (all 10 ng/well), and the p10xUAS-luc2 reporter plasmid (10 ng/well) were used. For pathway assays, the receptor plasmids (15 ng/well) and pathway reporter plasmids (15 ng/well) pEGR1p-luc2 for monitoring MAPK signaling, pCRE-CMVmin-luc2 for monitoring cAMP/Ca^2+ signaling, or p6xNFAT-CMVmin-luc2 for Ca^2+ signaling were used. Transient transfections were conducted according to the manufacturer’s instructions. On DIV2, cells were starved in medium containing 1% FCS for 16 h. […] In the case of antagonist assays, compounds were added at increasing doses together with the stimulus. Cells were lysed in 1x passive lysis buffer (Promega) and subjected to a firefly luciferase assay using a self-made substrate for firefly luciferase.[100] Luciferase activity was analyzed in a Mithras LB 940 Multimode Microplate Reader (Berthold Technologies). All assays were run in 96-well plates using six replicates per condition.

[2] = target: ERBB4 (Homo sapiens, UniProt Q15303); test: Split TEV firefly luciferase assay, ERBB4; type: cell-based; settings: PC12 cells; constant EGF-like domain 10 ng/mL; luciferase readout
Chain of ERBB4 (Q15303 26-1308): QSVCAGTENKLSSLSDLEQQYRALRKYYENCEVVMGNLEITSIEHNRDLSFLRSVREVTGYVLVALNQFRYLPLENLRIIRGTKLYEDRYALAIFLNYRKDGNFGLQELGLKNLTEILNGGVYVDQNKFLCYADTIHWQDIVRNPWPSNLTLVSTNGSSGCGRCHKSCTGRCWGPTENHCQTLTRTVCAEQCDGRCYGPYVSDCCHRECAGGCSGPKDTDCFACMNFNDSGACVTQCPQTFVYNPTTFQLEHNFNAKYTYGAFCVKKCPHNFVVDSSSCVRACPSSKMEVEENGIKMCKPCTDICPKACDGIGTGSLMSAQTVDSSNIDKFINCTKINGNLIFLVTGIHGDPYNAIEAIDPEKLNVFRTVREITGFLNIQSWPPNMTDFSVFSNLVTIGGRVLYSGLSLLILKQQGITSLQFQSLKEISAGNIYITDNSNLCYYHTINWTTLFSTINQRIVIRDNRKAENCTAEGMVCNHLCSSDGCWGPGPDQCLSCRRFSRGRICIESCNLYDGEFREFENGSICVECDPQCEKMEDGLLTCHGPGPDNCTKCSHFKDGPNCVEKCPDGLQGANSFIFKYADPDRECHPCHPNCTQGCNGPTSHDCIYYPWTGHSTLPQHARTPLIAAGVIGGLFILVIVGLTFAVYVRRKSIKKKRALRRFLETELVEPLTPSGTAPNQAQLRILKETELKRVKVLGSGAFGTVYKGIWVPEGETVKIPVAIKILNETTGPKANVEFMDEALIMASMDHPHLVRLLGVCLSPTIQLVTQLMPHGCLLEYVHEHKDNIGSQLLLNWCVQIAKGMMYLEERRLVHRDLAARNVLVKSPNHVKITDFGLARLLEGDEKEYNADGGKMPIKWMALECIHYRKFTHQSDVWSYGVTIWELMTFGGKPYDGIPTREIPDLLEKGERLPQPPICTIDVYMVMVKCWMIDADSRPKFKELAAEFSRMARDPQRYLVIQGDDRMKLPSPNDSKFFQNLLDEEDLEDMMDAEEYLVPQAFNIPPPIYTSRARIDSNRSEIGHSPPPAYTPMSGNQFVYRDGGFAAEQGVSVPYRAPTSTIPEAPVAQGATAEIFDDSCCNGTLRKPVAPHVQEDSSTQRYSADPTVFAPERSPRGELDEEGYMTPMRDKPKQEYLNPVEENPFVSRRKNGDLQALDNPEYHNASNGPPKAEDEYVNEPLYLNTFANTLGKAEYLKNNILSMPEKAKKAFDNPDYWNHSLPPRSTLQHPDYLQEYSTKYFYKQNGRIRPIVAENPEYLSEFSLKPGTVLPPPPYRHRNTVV
Experimental: as §1

[3] = system: HTR2A NFAT; test: ERBBprofiler barcoded NFAT pathway sensor, HTR2A co-transfected; settings: Rattus norvegicus, PC-12, 6 h, read-out: HTR2A NFAT IC50
[4] = system: calcium; test: Fluo-4 AM calcium assay in PC12 cells; type: cell-based, Rattus norvegicus; settings: stimulation mix
Experimental: On DIV2, cells were pre-equilibrated in 10 μM Fluo-4 a.m. (Thermo Fisher Scientific, F14201) away from light for 1 h at 37°C. Next, cells were incubated in the indicator-free starvation medium to allow de-esterification for 20 min away from light at 37°C. Background fluorescence was then measured using the BMG POLARstar Optima Microplate Reader prior to adding the treatments and continuously measuring the fluorescence for the next 30 min. Fluorescence was measured using the bottom optics.

[5] = system: cAMP; test: GloSensor cAMP assay in PC12 cells; type: cell-based, Rattus norvegicus
Experimental: The GloSensor cAMP assay was conducted with the same parameters (50,000 PC12 cells per 96-well) as described above for the firefly luciferase assay, with however, three differences. Specifically, (1) 30 ng/well of the pGloSensor-22F plasmid (Promega, E2301) was used for transfection, and (2) on DIV3, cells were equilibrated in assay medium containing a 2% v/v dilution of D-luciferin (Synchem, bc219) for 2 h at 37°C before (3) the treatment of compounds for 15 min and lysis in 1x passive lysis buffer (Promega) and luciferase activity measurement.

[6] = target: T1, phospho-ERBB4 (Homo sapiens, UniProt Q15303); test: Western blot of p-ERBB4 in T-47D cells; type: cell-based; settings: compound 1 h, EGFld 10 ng/mL 5 min, read-out: p-ERBB4 IC50, Western blot quantification
T1 construct: T-47D cells, which endogenously express ERBB4; host or cells: T-47D cells
T1 sequence (Q15303 26-1308): as above
Experimental: (§2) Phosphorylation levels of EGFR were assessed[37] in A549 cells, while phosphorylation levels of ERBB4 were assessed in T-47D cells. Before stimulation experiments were performed, both cell types were starved overnight in 1% FCS and compounds were incubated for 1 h. […] For lysis, cells were washed 1x with PBS and lysed in a Triton X- lysis buffer (1% Triton X-100, 50 mM Tris pH7.5, 150 mM NaCl, 1 mM EGTA) containing the Complete protease inhibitor cocktail (Roche) and PhosSTOP phosphatase inhibitor (Roche). Briefly, cells were lysed and kept on ice for 10 min, sonicated 3x for 10 s at 4°C, and denatured for 10 min at 70°C. The Mini-PROTEAN Tetra Electrophoresis System and Trans-Blot Turbo Botting System (both Bio-Rad) were used for running and blotting protein gels. […] Total EGFR and ERBB4 protein levels were determined using an anti-EGFR antibody (RRID: AB_10920395) (clone A-10, dilution 1:1000, sc-373746, Santa Cruz Biotechnology) and an anti-ERBB4 antibody (RRID: AB_731579) (clone E200, dilution 1:1000, ab32375, Abcam). […] Tubulin levels were determined using an anti-Tubulin antibody (RRID: AB_477579) (dilution 1:2000, No. T 5168, Sigma-Aldrich). For quantification, phosphorylation levels of p-EGFR relative to EGFR as well as p-ERBB4 relative to ERBB4 were calculated using the Lukemiller protocol (http://lukemiller.org/index.php/2010/11/analyzing-gels-and-western-blots-with-image-j/). […]

[7] = target: ERBB2/3 (Homo sapiens, UniProt P04626+P21860); test: ERBBprofiler barcoded split TEV assay, ERBB2/3
Chain of ERBB2/3 (P04626 23-1255): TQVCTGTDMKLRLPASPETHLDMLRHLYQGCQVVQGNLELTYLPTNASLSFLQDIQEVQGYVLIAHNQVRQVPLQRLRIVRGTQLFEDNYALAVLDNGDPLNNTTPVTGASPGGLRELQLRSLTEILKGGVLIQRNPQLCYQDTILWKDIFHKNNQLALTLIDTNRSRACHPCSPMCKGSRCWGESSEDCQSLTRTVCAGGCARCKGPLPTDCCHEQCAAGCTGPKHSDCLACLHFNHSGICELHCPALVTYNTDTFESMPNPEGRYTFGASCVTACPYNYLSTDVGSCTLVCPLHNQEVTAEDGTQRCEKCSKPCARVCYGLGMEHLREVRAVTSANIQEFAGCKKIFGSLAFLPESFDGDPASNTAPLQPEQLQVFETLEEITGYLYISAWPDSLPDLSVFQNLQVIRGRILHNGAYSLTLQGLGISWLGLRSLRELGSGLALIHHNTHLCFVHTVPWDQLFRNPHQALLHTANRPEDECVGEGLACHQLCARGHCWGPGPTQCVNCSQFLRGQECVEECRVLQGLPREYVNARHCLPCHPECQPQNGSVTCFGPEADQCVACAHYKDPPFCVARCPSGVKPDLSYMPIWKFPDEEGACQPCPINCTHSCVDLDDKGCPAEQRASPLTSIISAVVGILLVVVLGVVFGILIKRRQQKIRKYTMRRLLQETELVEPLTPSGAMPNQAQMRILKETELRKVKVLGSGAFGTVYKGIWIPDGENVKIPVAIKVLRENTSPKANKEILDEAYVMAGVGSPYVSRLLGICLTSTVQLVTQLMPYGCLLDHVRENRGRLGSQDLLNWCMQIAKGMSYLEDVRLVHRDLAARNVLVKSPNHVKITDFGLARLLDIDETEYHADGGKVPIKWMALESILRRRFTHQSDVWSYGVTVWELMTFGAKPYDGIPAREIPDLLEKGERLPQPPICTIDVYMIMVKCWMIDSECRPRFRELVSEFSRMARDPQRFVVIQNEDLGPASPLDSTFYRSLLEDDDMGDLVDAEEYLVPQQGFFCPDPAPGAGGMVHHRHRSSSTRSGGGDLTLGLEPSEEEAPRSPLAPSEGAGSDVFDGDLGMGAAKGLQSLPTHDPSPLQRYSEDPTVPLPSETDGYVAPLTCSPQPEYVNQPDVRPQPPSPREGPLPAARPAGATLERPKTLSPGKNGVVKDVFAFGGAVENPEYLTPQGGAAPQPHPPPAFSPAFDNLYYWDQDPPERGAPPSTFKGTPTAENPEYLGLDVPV
Chain of ERBB2/3 (P21860 20-1342): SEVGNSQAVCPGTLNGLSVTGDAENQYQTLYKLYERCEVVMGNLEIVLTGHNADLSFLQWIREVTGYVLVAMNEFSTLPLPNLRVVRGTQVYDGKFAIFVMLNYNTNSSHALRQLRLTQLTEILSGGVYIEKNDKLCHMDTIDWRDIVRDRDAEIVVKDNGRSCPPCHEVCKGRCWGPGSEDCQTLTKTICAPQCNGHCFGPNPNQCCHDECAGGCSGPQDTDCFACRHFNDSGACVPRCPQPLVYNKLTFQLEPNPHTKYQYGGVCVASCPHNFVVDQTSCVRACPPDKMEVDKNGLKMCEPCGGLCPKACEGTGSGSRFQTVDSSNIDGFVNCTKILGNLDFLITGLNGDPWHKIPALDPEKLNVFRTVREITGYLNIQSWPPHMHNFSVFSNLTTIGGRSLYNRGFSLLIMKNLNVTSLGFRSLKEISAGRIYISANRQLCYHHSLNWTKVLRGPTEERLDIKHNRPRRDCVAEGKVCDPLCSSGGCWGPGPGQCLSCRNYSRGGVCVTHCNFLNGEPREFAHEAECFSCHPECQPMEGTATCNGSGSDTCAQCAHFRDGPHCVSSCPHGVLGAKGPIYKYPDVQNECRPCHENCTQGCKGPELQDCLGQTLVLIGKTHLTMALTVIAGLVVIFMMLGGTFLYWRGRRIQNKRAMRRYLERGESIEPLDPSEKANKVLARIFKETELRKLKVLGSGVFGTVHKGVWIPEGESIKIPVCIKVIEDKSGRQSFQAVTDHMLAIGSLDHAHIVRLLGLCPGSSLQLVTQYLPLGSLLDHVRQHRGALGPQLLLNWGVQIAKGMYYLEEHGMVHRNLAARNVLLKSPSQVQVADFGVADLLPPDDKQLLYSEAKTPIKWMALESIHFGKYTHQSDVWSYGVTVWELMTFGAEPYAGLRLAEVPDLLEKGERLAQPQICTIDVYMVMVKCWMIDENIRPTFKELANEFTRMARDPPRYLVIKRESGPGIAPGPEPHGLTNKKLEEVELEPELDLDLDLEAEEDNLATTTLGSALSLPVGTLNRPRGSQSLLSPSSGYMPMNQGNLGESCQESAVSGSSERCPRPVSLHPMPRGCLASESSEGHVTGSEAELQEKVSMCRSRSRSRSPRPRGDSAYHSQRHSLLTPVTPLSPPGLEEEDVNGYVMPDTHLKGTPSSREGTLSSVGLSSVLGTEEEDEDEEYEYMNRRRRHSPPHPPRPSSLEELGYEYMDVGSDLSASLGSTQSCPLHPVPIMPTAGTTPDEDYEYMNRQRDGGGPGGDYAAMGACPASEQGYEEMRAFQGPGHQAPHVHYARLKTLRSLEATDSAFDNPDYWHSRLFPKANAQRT

[8] = system: ERBB2/3 EGR1p; test: ERBBprofiler barcoded EGR1p pathway sensor, ERBB2/3 co-transfected; settings: Rattus norvegicus, PC-12, 6 h, read-out: ERBB2/3 EGR1p IC50
[9] = target: HTR2A (Homo sapiens, UniProt P28223); test: ERBBprofiler barcoded split TEV assay, HTR2A
Chain of HTR2A (P28223 whole entry): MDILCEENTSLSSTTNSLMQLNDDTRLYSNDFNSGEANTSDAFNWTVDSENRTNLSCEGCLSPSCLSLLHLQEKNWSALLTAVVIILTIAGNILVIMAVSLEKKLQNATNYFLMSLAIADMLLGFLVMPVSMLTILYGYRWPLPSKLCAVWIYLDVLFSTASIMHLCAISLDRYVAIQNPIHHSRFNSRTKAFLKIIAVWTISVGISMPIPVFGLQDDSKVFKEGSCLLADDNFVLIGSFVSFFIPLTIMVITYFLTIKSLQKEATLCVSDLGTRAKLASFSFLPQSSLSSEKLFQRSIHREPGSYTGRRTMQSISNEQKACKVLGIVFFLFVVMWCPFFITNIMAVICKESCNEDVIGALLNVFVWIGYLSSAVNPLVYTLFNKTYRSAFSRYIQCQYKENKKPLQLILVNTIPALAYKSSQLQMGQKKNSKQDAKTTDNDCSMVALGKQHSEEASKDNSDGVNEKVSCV

[10] = system: ERBB4 EGR1p; test: ERBBprofiler barcoded EGR1p pathway sensor, ERBB4 co-transfected; settings: Rattus norvegicus, PC-12, 6 h, read-out: ERBB4 EGR1p IC50
[11] = system: HTR2A EGR1p; test: ERBBprofiler barcoded EGR1p pathway sensor, HTR2A co-transfected; settings: Rattus norvegicus, PC-12, 6 h, read-out: HTR2A EGR1p IC50
[12] = system: phospho-ERK1/2; test: Western blot of p-ERK1/2 in T-47D cells (EGFld stimulated); type: cell-based; settings: Homo sapiens, T47D, compound 1 h, EGFld 10 ng/mL 5 min, read-out: p-ERK1/2 IC50 (ERBB4), Western blot quantification
Experimental: as §2

[13] = system: EGR1p (MAPK signaling), EGFR; test: EGR1p pathway sensor luciferase assay, EGFR; type: cell-based, Rattus norvegicus; settings: Rattus norvegicus, PC-12; read-out: EGFR downstream MAPK signaling IC50, EGR1p sensor luciferase
Experimental: as §1

[14] = system: EGFR EGR1p; test: ERBBprofiler barcoded EGR1p pathway sensor, EGFR co-transfected; settings: Rattus norvegicus, PC-12, 6 h, read-out: EGFR EGR1p IC50

| SMILES | IC50 [1] [nM] | IC50 [2] [nM] | IC50 [3] [nM] | effect on calcium levels (Fluo-4 AM) [4] | effect on cAMP levels (GloSensor) [5] | IC50 [6] [nM] | IC50 [7] [nM] | IC50 [8] [nM] | IC50 [9] [nM] | IC50 [10] [nM] | IC50 [11] [nM] | IC50 [12] [nM] | IC50 [13] [nM] | IC50 [14] [nM] | EC50 ([5]; Rattus norvegicus, PC-12, 0.25 h, constant stimulation mix, 15 min, cAMP increase) [nM] | compound concentration resulting in elevated cAMP (GloSensor) ([5]; stimulation mix) [µM] |
| --- | --- | --- | --- | --- | --- | --- | --- | --- | --- | --- | --- | --- | --- | --- | --- | --- |
| COc1cc2ncnc(Nc3cccc(Cl)c3)c2cc1OC [AG1478, AG-1478 (Tyrphostin AG-1478)] | 378 | 258 | 64 | did not cause any increase | did not cause any increase | 100 | 202 | 30 | 17 | 47 | 32 | 147 | 94 | 23 |  |  |
| CCOc1cc2ncc(C#N)c(Nc3ccc(OCc4ccccn4)c(Cl)c3)c2cc1NC(=O)/C=C/[C@H]1CCCN1C [Pyrotinib] | 284 | 324 | 576 | but not calcium levels |  | 344 | 92 | 120 | 184 | 113 | 160 | 4990 | 450 | 261 | 1920 | ≥ 3 |
